Test results from ChEMBL document CHEMBL5223089, “Cyclosporin Structure and Permeability: From A to Z and Beyond” (J Med Chem, 2021).

System: not listed separately
Test: Permeability of compound by PAMP assay
Format: ADME
Details: not told; read-out: permeability

Compound	Papp
C/C=C/C[C@@H](C)[C@@H](O)[C@H]1C(=O)N[C@@H]([C@@H](C)O)C(=O)N(C)CC(=O)N(C)[C@@H](CC(C)C)C(=O)N[C@@H](C(C)C)C(=O)N(C)[C@@H](CC(C)C)C(=O)N[C@@H](C)C(=O)N[C@H](C)C(=O)N(C)[C@@H](CC(C)C)C(=O)N(C)[C@@H](CC(C)C)C(=O)N(C)[C@@H](C(C)C)C(=O)N1C	2.8 ×10⁻⁶ cm/s
C/C=C/C[C@@H](C)[C@@H](O)[C@H]1C(=O)N[C@@H](CC)C(=O)N(C)CC(=O)N(C)[C@@H](CC(C)C)C(=O)N[C@@H](C(C)C)C(=O)N(C)[C@@H](CC(C)C)C(=O)N[C@@H](C)C(=O)N[C@H](C)C(=O)N(C)[C@@H](CC(C)C)C(=O)N(C)[C@@H](CC(C)C)C(=O)N[C@@H](C(C)C)C(=O)N1C	0.42 ×10⁻⁶ cm/s
C/C=C/C[C@@H](C)[C@@H](O)[C@H]1C(=O)N[C@@H](C(C)C)C(=O)N(C)CC(=O)N(C)[C@@H](CC(C)C)C(=O)N[C@@H](C(C)C)C(=O)N(C)[C@@H](CC(C)C)C(=O)N[C@@H](C)C(=O)N[C@H](C)C(=O)N(C)[C@@H](CC(C)C)C(=O)N(C)[C@@H](CC(C)C)C(=O)N(C)[C@@H](C(C)C)C(=O)N1C	4.4 ×10⁻⁶ cm/s
C/C=C/C[C@@H](C)[C@@H](O)[C@H]1C(=O)N[C@@H](CC)C(=O)N(C)CC(=O)N[C@@H](CC(C)C)C(=O)N[C@@H](C(C)C)C(=O)N[C@@H](CC(C)C)C(=O)N[C@@H](C)C(=O)N[C@H](C)C(=O)N(C)[C@@H](CC(C)C)C(=O)N(C)[C@@H](CC(C)C)C(=O)N(C)[C@@H](C(C)C)C(=O)N1C	4.1 ×10⁻⁶ cm/s

Now from value to molecule:

Papp	Compound
7.9 ×10⁻⁶ cm/s	C/C=C/C[C@@H](C)[C@@H](O)[C@H]1C(=O)N[C@@H](C)C(=O)N(C)CC(=O)N(C)[C@@H](CC(C)C)C(=O)N[C@@H](C(C)C)C(=O)N(C)[C@@H](CC(C)C)C(=O)N[C@@H](C)C(=O)N[C@H](C)C(=O)N(C)[C@@H](CC(C)C)C(=O)N(C)[C@@H](CC(C)C)C(=O)N(C)[C@@H](C(C)C)C(=O)N1C
3.3 ×10⁻⁶ cm/s	C/C=C/C[C@@H](C)[C@@H](OC(C)=O)[C@H]1C(=O)N[C@@H](CC)C(=O)N(C)CC(=O)N(C)[C@@H](CC(C)C)C(=O)N[C@@H](C(C)C)C(=O)N(C)[C@@H](CC(C)C)C(=O)N[C@@H](C)C(=O)N[C@H](C)C(=O)N(C)[C@@H](CC(C)C)C(=O)N(C)[C@@H](CC(C)C)C(=O)N(C)[C@@H](C(C)C)C(=O)N1C
2.5 ×10⁻⁶ cm/s	C/C=C/C[C@@H](C)[C@@H](O)[C@H]1C(=O)N[C@@H](CC)C(=O)N(C)CC(=O)N[C@@H](CC(C)C)C(=O)N[C@@H](C(C)C)C(=O)N(C)[C@@H](CC(C)C)C(=O)N[C@@H](C)C(=O)N[C@H](C)C(=O)N(C)[C@@H](CC(C)C)C(=O)N(C)[C@@H](CC(C)C)C(=O)N(C)[C@@H](C(C)C)C(=O)N1C

Organism: Homo sapiens
Test: Binding affinity to mCherry labelled that cyclophilin (unknown origin) relative to control
Details: not given

Compound	Activity
C/C=C/C[C@@H](C)[C@@H](O)[C@H]1C(=O)N[C@@H](CC)C(=O)N(C)CC(=O)N(C)[C@@H](C(C)C)C(=O)N[C@@H](C(C)C)C(=O)N(C)[C@@H](CC(C)C)C(=O)N[C@@H](C)C(=O)N[C@H](C)C(=O)N(C)[C@@H](CC(C)C)C(=O)N(C)[C@@H](CC(C)C)C(=O)N(C)[C@@H](C(C)C)C(=O)N1C	126%

Organism: Homo sapiens
Test: Binding affinity to mCherry labelled that cyclophilin (unknown origin) assessed as fold change
Details: not given

Compound	fold change (FC)
C/C=C/C[C@@H](C)[C@@H](O)[C@H]1C(=O)N[C@@H](CC)C(=O)N(C)CC(=O)N(C)[C@@H](C(C)C)C(=O)N[C@@H](C(C)C)C(=O)N(C)[C@@H](CC(C)C)C(=O)N[C@@H](C)C(=O)N[C@H](C)C(=O)N(C)[C@@H](CC(C)C)C(=O)N(C)[C@@H](CC(C)C)C(=O)N(C)[C@@H](C(C)C)C(=O)N1C	2
